Assay: Inhibition of acetyl-coenzyme A carboxylase
Settings: read-out: I50

| SMILES | IC50 [µM] |
| --- | --- |
| O=C1C(c2ccc(Cl)cc2Cl)=C(O)N2CCCCC12 (stereo not drawn) | 15 |
| CCO/N=C(\CC)C1=C(O)CC(c2c(C)cc(C)cc2C)CC1=O (stereo not drawn) [TRALKOXYDIM] | 1 |
| C=CCO/N=C(\CCC)C1=C(O)N2CCCCC2C1=O (stereo not drawn) | 80 |
